Laboratory results taken from patent US20080200693A1, “Derivatives of Aryl (or Heteroaryl) Azolylcarbinols (in Particular Cizolirtin Citrate) for the Treatment of Opioid Addiction” (LABORATORIOS DEL DR. ESTEVE S.A., priority 2004, published 2008).

Test system: male Swiss albino mice
Assay: Determination of withdrawal symptoms (naloxone-induced jumps and shakes in opioid-dependent mice)
Assay type: in vivo
Description: Pharmacodyn, 1971, 190, pages 213-218 in male Swiss albino mice (weight 20-25 g, Harlan Iberica, S. Feliu de Codinas, Barcelona, Spain).
Opioid dependency is developed in the mice by intraperitoneal administration of the opioid in a suitable dose known to those skilled in the art, e.g. 5 mg/kg/day for 4 consecutive days for morphine. Withdrawal symptoms are then induced by the intravenous administration of a suitable opioid antagonist in a dose known to those skilled in the art, for example, 2 mg/kg naloxone in case of morphine, 30 minutes after the administration of the final dose of the opioid is completed.
In the 30 minute period following the naloxone administration the mice show typical withdrawal symptoms, namely jumps and shakes (of the wet dog shake type), which are counted and registered.
The active substance is administered in combination with the opioid to the mice for 4 consecutive days. After the administration of 2 mg/kg naloxone 30 minutes after the administration of the final dose of the active substance in combination with the opioid has been completed, the mice are closely watched for withdrawal symptoms, namely jumps and shakes (of the wet dog shake type), which are then counted and registered.
The influence of the active substance in combination with an opioid on withdrawal symptoms has been determined as described above.

SMILES | withdrawal symptoms usually associated with the administration of opioids (morphine) (co-administration with morphine, administered amount of the opioid not reduced, mice) | Number of Jumps (morphine 5 mg/kg/day s.c. over 4 days, 2 mg/kg naloxone 30 min after final dose, counted in the following 30 minute period) | Number of shakes (morphine 5 mg/kg/day s.c. over 4 days, 2 mg/kg naloxone 30 min after final dose, wet dog shake type, counted in the following 30 minute period)
CN(C)CCOC(c1ccccc1)c1ccnn1C.O=C(O)CC(O)(CC(=O)O)C(=O)O (racemic) [Example 1, (±)-5-{α-[2-(dimethylamino)ethoxy]benzyl}-1-methyl-1H-pirazole citrate] | significantly reduced |  | 
CN1CC[C@]23c4c5ccc(O)c4O[C@H]2[C@@H](O)C=C[C@H]3[C@H]1C5 [Morphine] |  | 6.6 | 16.3
